Laboratory results reported in publication PMC10486429, “Investigations Using Albumin Binders to Modify the Tissue Distribution Profile of Radiopharmaceuticals Exemplified with Folate Radioconjugates” (Cancers, 2023).

How the values were obtained:
[1] = Blood clearance of 177Lu-DOTA-ALBs in FVB mice; details: for Time to Reach 50% IA (T50%IA): blood activity, value at 3 min set as 100%
Protocol: Immunocompetent female mice (FVB) at the age of 5 to 6 weeks were purchased from Charles River Laboratories (Sulzfeld, Germany) and acclimatized upon arrival for at least 7 days. FVB mice were intravenously injected with ^177Lu-DOTA-ALBs (25 MBq, 1 nmol/mouse, 100 µL PBS containing 0.05% bovine serum albumin (BSA) and 25 μg L-ascorbic acid, n = 3−6 mice per radioligand) followed by the first blood sampling of 3 × 1 μL from a different tail vein 3 min after injection (set as t0). Additional blood samples were taken at defined time points after injection. All collected blood samples from individual mice were measured at the same time using a γ-counter (PerkinElmer Wallac Wizard 1480, Waltham, MA, USA) to obtain decay-corrected values. The counts were set in relation to the initial counts at t0 (set as 100%) to prepare clearance curves by plotting the percentage of retained activity in the blood (% IA) against the time. The blood clearance curves were investigated until the counts of the blood samples were below the linear detection range (Supplementary Materials Section S6). An analysis was performed using GraphPad Prism software (version 8.0) by fitting a non-linear regression curve (exponential, two-phase) to the data points to calculate the serum half-lives. The areas under the curves (AUC0–7days) were calculated by integrating the blood excretion curves over 7 days and setting into relation with the AUC0–7days value obtained for [^177Lu]Lu-DOTA-ALB-1 (set as 1.0) to obtain relative AUC0–7days values. […]
S6. Blood Clearance of 177Lu-DOTA-ALBs
Purpose: The 177Lu-labeled DOTA-ALBs were investigated in vivo in order to assess their blood clearance profile.
Methods: Female, immunocompetent FVB mice were obtained from Charles River Laboratories (Sulzfeld, Germany), at the age of 5–6 weeks and acclimatized for at least 7 days before the start of the in vivo studies. Blood clearance of 177Lu-labeled DOTA-ALBs were determined in n=3–6 mice per radioligand. The radiolabeled DOTA-ALBs ( 25 MBq/nmol) were formulated in PBS pH 7.4 containing 0.05% bovine serum albumin (BSA) and L-ascorbic acid (25 µg per 25 MBq) to prevent radiolytic degradation. Mice were intravenously injected with the respective 177Lu-labeled DOTA-ALB (25 MBq, 1 nmol, 100 µL per mouse). The blood clearance was determined by taking blood samples (3 × 1 µL) from the tail vein using 1 µL-capillaries at 3 min after injection (set as t0) as well as at various timepoints over the following 48 h. In the case of [177Lu]Lu-DOTA-ALB-1 and [177Lu]Lu-DOTA-ALB-3, blood sampling was additionally performed at later time points up to 3 and 7 days, respectively. The collected blood samples were measured in a γ-coun-ter (PerkinElmer, Wallac Wizard 1480, Waltham, MA, USA).

[2] = n-octanol/PBS distribution coefficient (shake-flask) of 177Lu-DOTA-ALBs; type: physicochemical; details: n-octanol/PBS pH 7.4
Protocol: The radiolabeling of DOTA-ALBs was carried out under standard labeling conditions at pH 4.5. The ligands (10−100 μM) were mixed with lutetium-177 (no-carrier added [^177Lu]LuCl3; in 0.04 M HCl; ITM GmbH Medical Isotopes, Munich, Germany) to reach molar activities of 25–50 MBq/nmol (Supplementary Materials Section S2). An analytical HPLC system equipped with a C18 column and a radioactivity detector was used for quality control of the radiolabeled DOTA-ALBs (Supplementary Materials Section S2). The ^177Lu-DOTA-ALBs were used for preclinical investigations without separation of the labeled from the unlabeled fraction. The radiolytic stability of the ^177Lu-DOTA-ALBs (50 MBq/nmol) diluted in phosphate-buffered saline (PBS; 100 MBq/500 μL) was assessed in vitro in the absence and presence of L-ascorbic acid (Supplementary Materials Section S3). The n-octanol/PBS distribution coefficients (logD values) were determined using a shake-flask method according to an established protocol (Supplementary Materials Section S4). The logD values were analyzed using a one-way ANOVA with Tukey’s multiple comparisons post-test using GraphPad Prism software (version 8). […]
Purpose: The n-octanol/PBS distribution coefficients (logD values) were determined for all 177Lu-DOTA-ALBs in order to assess their hydrophilic/hydrophobic properties.
Methods: The n-octanol/PBS distribution coefficients (logD values) of the 177Lu-DOTA-ALBs were determined as previously described. […]
The vials were vortexed vigorously for 1 min followed by centrifugation for 6 min at 560 rcf for phase separation. An aliquot was taken from each phase and measured in a γ-counter (Perkin Elmer, Wallac Wizard 1480, Waltham, MA, USA). The distribution coeffi-cients were calculated as the logarithm of the ratio of counts per minute (cpm) measured in the n-octanol phase relative to the cpm measured in the PBS phase. […]
Methods: Relative binding affinities of 177Lu-DOTA-ALBs to mouse (MSA) and hu-man (HSA) serum albumin in the respective blood plasma were determined using an ul-trafiltration assay according to a previously described procedure. […]

[3] = FVB mice, i.v., 25 MBq, 1 nmol, two-phase exponential fit of blood activity

SMILES | Rel. Blood AUC0–7days ([1]; mouse, in vivo) | % Phase a ([1]; mouse, in vivo, iv) [%] | % Phase b ([1]; mouse, in vivo, iv) [%] | Blood AUC0–7days ([1]; mouse, in vivo, iv) [% IA× h] | Half-Life Phase a ([1]; mouse, in vivo, iv) [h] | Half-Life Phase b ([1]; mouse, in vivo, iv) [h] | logD value [2] | further results
O=C(O)CN1CCN(CC(=O)O)CCN(CC(=O)NCCC(=O)N[C@@H](CCCCNC(=O)CCCCc2ccc(I)cc2)C(=O)O)CCN(CC(=O)O)CC1.[177Lu] [[^177Lu]Lu-DOTA-ALB-24] | 0.08 | 99 | 1 | 119 | 0.8 | 8.9 | −2.68 ± 0.06 | 
O=C(O)CN1CCN(CC(=O)O)CCN(CC(=O)NCCC(=O)N[C@@H](CCCCNC(=O)c2ccc(CNC(=O)CCCc3ccc(I)cc3)cc2)C(=O)O)CCN(CC(=O)O)CC1.[177Lu] [[^177Lu]Lu-DOTA-ALB-3] |  |  |  |  |  |  | −2.64 ± 0.04 | Retention of activity in the blood ([1]; FVB mice, 0 h p.i. (t0 set as 100%)): 100 % IA; Retention of activity in the blood ([1]; FVB mice, 1 h p.i.): 81 ± 9 % IA; Retention of activity in the blood ([1]; FVB mice, 2 h p.i.): 74 ± 16 % IA; Retention of activity in the blood ([1]; FVB mice, 4 h p.i.): 71 ± 11 % IA; Retention of activity in the blood ([1]; FVB mice, 8 h p.i.): 66 ± 10 % IA; Retention of activity in the blood ([1]; FVB mice, 24 h p.i.): 45 ± 7 % IA; Retention of activity in the blood ([1]; FVB mice, 48 h p.i.): 28 ± 5 % IA; Retention of activity in the blood ([1]; FVB mice, 72 h p.i.): 19 ± 2 % IA; Retention of activity in the blood ([1]; FVB mice, 120 h p.i.): 7 ± 2 % IA; Retention of activity in the blood ([1]; FVB mice, 144 h p.i.): 5 ± 1 % IA; Retention of activity in the blood ([1]; FVB mice, 168 h p.i.): 3 ± 1 % IA; Half-Life Phase a [1, 3]: 0.5 h; Half-Life Phase b [1, 3]: 34 h; Time to Reach 50% IA (T50%IA) ([1]; FVB mice, i.v.): ~ 24 h; Time to Reach 50% IA (T50%IA) ([1]; FVB mice, i.v., listed as 3): ~24 h; Blood AUC0–7days ([1]; FVB mice, i.v., decay-corrected, over 7 days): 3617 % IA× h; % Phase a ([1]; FVB mice, i.v., share of Phase a in blood excretion curve): 23%; % Phase b ([1]; FVB mice, i.v., share of Phase b in blood excretion curve): 77%
O=C(O)CN1CCN(CC(=O)O)CCN(CC(=O)NCCC(=O)N[C@@H](CCCCNC(=O)CCCc2ccc(I)cc2)C(=O)O)CCN(CC(=O)O)CC1.[177Lu] [[^177Lu]Lu-DOTA-ALB-1] | 1.0 | 33 | 67 | 1500 | 0.006 | 16 |  | 
O=C(O)CN1CCN(CC(=O)O)CCN(CC(=O)NCCC(=O)N[C@@H](CCCCNC(=O)c2ccc(CNC(=O)CCCCc3ccc(I)cc3)cc2)C(=O)O)CCN(CC(=O)O)CC1.[177Lu] [[^177Lu]Lu-DOTA-ALB-25] | 0.3 | 41 | 59 | 425 | 0.7 | 4.5 | −2.39 ± 0.04 | 
